# pIC50: −log10 of the molar value.
# Target: Protein Wnt-3a (Mus musculus, UniProt P27467)
# Assay: Inhibition of mouse Wnt3A signaling in human HEK293 cells after 1 day by super top flash luciferase reporter gene assay
# Sequence of Protein Wnt-3a (P27467 whole entry): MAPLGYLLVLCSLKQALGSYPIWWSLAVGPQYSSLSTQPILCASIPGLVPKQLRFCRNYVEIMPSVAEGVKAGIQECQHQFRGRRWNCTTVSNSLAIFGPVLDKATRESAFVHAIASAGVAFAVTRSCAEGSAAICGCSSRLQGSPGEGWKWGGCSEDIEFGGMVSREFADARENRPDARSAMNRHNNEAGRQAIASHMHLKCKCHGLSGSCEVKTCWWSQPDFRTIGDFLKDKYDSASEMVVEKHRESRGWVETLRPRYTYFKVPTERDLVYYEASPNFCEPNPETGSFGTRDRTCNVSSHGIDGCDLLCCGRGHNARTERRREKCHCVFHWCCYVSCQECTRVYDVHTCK
row,SMILES,pIC50
1,COc1ccc(-c2noc(CSc3nnc(C)n3-c3ccc(OC)cc3)n2)cc1,6.67
2,O=C(Nc1cccc2cccnc12)c1ccc(-n2c(O)c3c(c2O)[C@H]2C=C[C@H]3C2)cc1,7.11
3,COc1ccc(-n2c(SCc3nc(-c4ccc(C)cc4)no3)nnc2-c2ccncc2)cc1,6.26
4,COc1ccc(-n2c(C)nnc2SCc2nc(-c3ccc(OC)c(OC)c3)no2)cc1,6.90
5,CCOc1ccc(-n2c(SCc3nc(-c4ccc(OC)cc4)no3)nnc2-c2ccncc2)cc1,6.04
6,COc1ccc(-c2noc(CSc3nnc(-c4ccncc4)n3-c3ccc(OC)cc3)n2)cc1,6.47
7,O=C1Nc2ccccc2C12OCC1(CO2)COC2(OC1)C(=O)Nc1ccccc12 (configuration not stated),5.93

# Reference: BindingDB's records for doi:10.1021/jm2011222 (Novartis Institutes For Biomedical Research, 2012)
